Measurements as given in patent publication EP0514133A1, “Benzodiazepine derivatives, compositions containing them and their use in therapy” (priority 1991, dated 1992).
Like-named read-outs stand apart in the source and are kept apart here.

Experiments:
Gastrin Receptor = target: T1, Gastrin Receptor (Cavia porcellus, UniProt H0VZC5); assay: Gastrin Receptor Binding in Guinea Pig Gastric Glands, 125I-gastrin; design: from tissue; host or cells: isolated guinea pig gastric mucosal glands; conditions: 0.1 nM 125I-gastrin, 25°C 30 minutes
T1 sequence (H0VZC5 1-426): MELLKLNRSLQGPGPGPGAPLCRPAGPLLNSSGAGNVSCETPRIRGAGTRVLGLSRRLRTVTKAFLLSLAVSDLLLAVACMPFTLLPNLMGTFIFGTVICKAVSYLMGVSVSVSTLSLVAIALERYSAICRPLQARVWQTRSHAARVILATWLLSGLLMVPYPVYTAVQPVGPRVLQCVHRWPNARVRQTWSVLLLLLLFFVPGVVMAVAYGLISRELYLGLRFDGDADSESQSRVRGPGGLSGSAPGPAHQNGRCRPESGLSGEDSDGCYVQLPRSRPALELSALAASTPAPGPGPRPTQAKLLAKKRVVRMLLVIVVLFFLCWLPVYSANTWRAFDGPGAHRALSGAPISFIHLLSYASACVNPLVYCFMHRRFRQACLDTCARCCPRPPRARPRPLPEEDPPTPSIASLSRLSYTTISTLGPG
Experimental: Gastrin antagonist activity of compounds of Formula I was determined using the following assay.
Guinea pig gastric mucosal glands were prepared by the procedure of Chang et. al., Science, 230, 177-179 (1985) with slight modifications. […] The tissues were passed twice through a 5 ml syringe to liberate the gastric glands, and then filtered through Nitex (trademark) #202 gauge nylon mesh. The filtered glands were centrifuged at 272 g for 5 minutes and washed twice by resuspension in 25 ml buffer and centrifugation.
The washed guinea pig gastric glands prepared as above were resuspended in 25 ml of standard buffer. For binding studies, to 250 µl of gastric glands, 30 µl of buffer (for total binding) or gastrin (3 µM final concentration, for nonspecific binding) or test compound and 20 µl of ¹²⁵I-gastrin (NEN, 2200 Ci/mmole, 0.1 nM final concentration) were added. All assays were run in triplicate. […] The reaction mixtures, after incubation at 25°C for 30 minutes in a shaking water bath were rapidly filtered (Brandell 24 well cell harvester) over Whatman G/F B filters presoaked in assay buffer and immediately washed further with 3 x 4 ml of 100 mM ice cold NaCl. The radioactivity on the filters was measured using a LKB gamma counter.

CCK receptor (pancreas) = target: T2, CCK receptor (pancreas) (Rattus norvegicus, UniProt P30551); assay: biochemical; assay type: binding; conditions: rat pancreas membranes; for IC50: 50 pM 125I-CCK-8, 25°C 2 hours
T2 construct: The whole pancreas was dissected free of fat tissue and was homogenized; from tissue; host or cells: rat pancreas membrane homogenate
T2 sequence (P30551 1-444): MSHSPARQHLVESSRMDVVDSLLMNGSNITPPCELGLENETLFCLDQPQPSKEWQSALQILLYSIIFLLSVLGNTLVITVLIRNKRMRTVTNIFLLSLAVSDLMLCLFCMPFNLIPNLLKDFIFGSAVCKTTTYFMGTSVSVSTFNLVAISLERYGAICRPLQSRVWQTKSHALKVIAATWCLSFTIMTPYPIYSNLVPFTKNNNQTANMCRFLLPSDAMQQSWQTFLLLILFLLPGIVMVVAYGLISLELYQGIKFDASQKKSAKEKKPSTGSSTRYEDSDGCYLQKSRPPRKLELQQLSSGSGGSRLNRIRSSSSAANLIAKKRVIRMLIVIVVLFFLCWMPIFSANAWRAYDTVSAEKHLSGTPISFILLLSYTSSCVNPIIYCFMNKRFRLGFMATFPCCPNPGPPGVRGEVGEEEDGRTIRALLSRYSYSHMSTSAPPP
Experimental: CCK-8 sulphated was radiolabelled with ¹²⁵I-Bolton Hunter reagent (2000 Ci/mmole). Receptor binding was performed according to Chang and Lotti (Proc. Natl. Acad. Sci. 83, 4923-4926, 1986) with minor modifications.
Male Sprague-Dawley rats (150-200g) were sacrificed by decapitation. The whole pancreas was dissected free of fat tissue and was homogenized in 25 volumes of ice-cold 10 mM N-2-hydroxyethyl-piperazine-N′-2-ethane sulphonic acid (HEPES) buffer with 0.1% soya bean trypsin inhibitor (pH 7.4 at 25°C) with a Kinematica Polytron. The homogenates were centrifuged at 47,800 g for 10 min. Pellets were resuspended in 10 volumes of binding assay buffer (20mM (HEPES)), 1mM ethylene glycol-bis-(β-aminoethylether-N,N′-tetraacetic acid) (EGTA), 5mM MgCl₂, 150 mM NaCl, bacitracin 0.25 mg/ml, soya bean trypsin inhibitor 0.1 mg/ml, and bovine serum albumin 2 mg/ml pH 6.5 at 25°C) using a Teflon (trademark) homogenizer, 15 strokes at 500 rpm. The homogenate was further diluted in binding assay buffer to give a final concentration of 0.5 mg original wet weight/1 ml buffer. […] All assays were run in duplicate. The reaction mixtures were incubated at 25°C for 2 hours and the reaction terminated by rapid filtration (Brandell 24 well cell harvester) over Whatman GF/C filters, washing 3 x 4 mls with ice-cold 100 Mm NaCl. The radioactivity on the filters was counted with a LKB gamma counter.
(§1) Drug displacement studies were performed with at least 10 concentrations of compounds of Formula I and the IC₅₀ values were determined by regression analysis IC₅₀ refers to the concentration of the compound required to inhibit 50% of specific binding of ¹²⁵I-CCK-8.

[1] = target: T3, CCK receptor (brain, cortex) (Cavia porcellus, UniProt H0VZC5); assay: biochemical; assay type: binding, guinea pig
T3 construct: the cortex was removed and homogenized in 25 mL ice-cold 0.32 M sucrose; from tissue; host or cells: guinea pig brain cortex P2 membrane pellet
T3 sequence (H0VZC5 1-426): T1 sequence (H0VZC5 1-426)
Experimental: CCK-8 sulphated was radiolabelled and the binding was performed according to the description for the pancreas method with minor modifications.
Male Hartley guinea pigs (300-500g) were sacrificed by decapitation and the cortex was removed and homogenized in 25 mL ice-cold 0.32 M sucrose. The homogenates were centrifuged at 1000 g for 10 minutes and the resulting supernatant was recentrifuged at 20,000 g for 20 minutes. The P₂ pellet was resuspended in binding assay buffer (20mM HEPES, 5 mM MgCl₂, 0.25 mg/ml bacitracin, 1 mM EGTA pH 6.5 at 25°C), using a Teflon (trademark) homogenizer (5 strokes at 500 rpm) to give a final concentration of 10 mg original wet weight/1.2 ml buffer. […] All assays were run in duplicate. The reaction mixtures were incubated at 25°C for 2 hours and then the reaction was terminated by rapid filtration (Brandell 24 well cell harvester) on Whatman GF/C filters with 3 x 5 ml washes of cold 100 mM NaCl. The radioactivity on the filters was counted with a LKB gamma counter.
as §1

[2] = guinea pig cortex membranes, 50 pM 125I-CCK-8, 25°C 2 hours, read-out: IC50 ^125I-CCK Brain

Compound | IC50 (Gastrin Receptor) [nM] | IC50 (CCK receptor (pancreas)) [nM] | IC50 [1] [nM] | IC50 [1, 2] [nM] | inhibition at 3 µM (CCK receptor (pancreas); at 3μM, read-out: inhibition of ^125I-CCK binding, Pancreas) [%]
CC(=O)NS(=O)(=O)c1cccc(NC(=O)NC2N=C(C3CCCCC3)c3ccccc3N(C)C2=O)c1 (racemic) [Example 15, N-[3(R,S)-5-Cyclohexyl-2,3-dihydro-1-methyl-2-oxo-1H-1,4-benzodiazepin-3-yl] N′-[3-(methylcarbonylaminosulphonyl)phenyl] urea] | 1.06 | 19.8 | 0.4 | – | –
CN1C(=O)C(NC(=O)Nc2cccc(-c3nn[nH]n3)c2)N=C(C2CCCCC2)c2ccccc21 (racemic) [Example 4, N-[3(R,S)-5-Cyclohexyl-2,3-dihydro-1-methyl-2-oxo-1H-1,4-benzodiazepin-3-yl] N′-[3-tetrazol-5-ylphenyl]urea] | 0.44 | 11 | – | 0.09 | –
N-(3(R,S)-5-Cyclopentyl-2,3-dihydro-1-methyl-2-oxo-1H-1,4-benzodiazepin-3-yl] N′-[3-(1,1-dimethylethylsulphonylaminocarbonyl)phenyl] urea [Example 39] | 1.18 | 270 | – | 0.56 | –
CCN1C(=O)C(NC(=O)Nc2cccc(S(=O)(=O)NC(C)=O)c2)N=C(C2CCCC2)c2ccccc21 (racemic) [Example 20, N-[3(R,S)-5-Cyclopentyl-2,3-dihydro-1-ethyl-2-oxo-1H-1,4-benzodiazepin-3-yl] N′-[3-(methylcarbonylaminosulphonyl)phenyl] urea] | 1.77 | 953 | – | 1.4 | –
CN1C(=O)[C@H](NC(=O)Nc2cccc(C(=O)NS(=O)(=O)c3ccccc3)c2)N=C(C2CCCCC2)c2ccccc21 [Example 27, (-)-N-[3(R)-5-Cyclohexyl-2,3-dihydro-1-methyl-2-oxo-1H-1,4-benzodiazepin-3-yl] N′-[3-(phenylsulphonylaminocarbonyl)phenyl]urea] | 1.34 | – | 0.38 | – | 19
CN1C(=O)C(NC(=O)Nc2cccc(S(=O)(=O)NC(=O)C(F)(F)F)c2)N=C(C2CCCCC2)c2ccccc21 (racemic) [Example 17, N-[3(R,S)-5-Cyclohexyl-2,3-dihydro-1-methyl-2-oxo-1H-1,4-benzodiazepin-3-yl] N′-[3-(trifluoromethylcarbonylaminosulphonyl)phenyl] urea] | 10.5 | 137 | – | 0.9 | –
